Results published in patent US20140288040A1, “SUBSTITUTED BENZYLAMINE COMPOUNDS, THEIR USE IN MEDICINE, AND IN PARTICULAR THE TREATMENT OF HEPATITIS C VIRUS (HCV) INFECTION” (ASTEX THERAPEUTICS LIMITED, priority 2011, published 2014).
Counter-ions that a name gives are not always drawn. Like-named read-outs stand apart in the source and are kept apart here.

What was measured:
[1] = tested on: HCV subgenomic replicon in Huh-7 cells; experiment: Replicon assay, EC50 luciferase readout; type: cell-based, hepatitis C virus (HCV); conditions: single value, or second value of a pair x:y
How it was run: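 Huh-7 cells carrying a subgenomic HCV replicon (NS3-NS5b, firefly luciferase-neo fusion) were treated with compound for 72 h at 37°C, 5% CO2. EC50 derived from Bright-Glo luciferase signal as a proxy for HCV RNA; cell viability measured in parallel by Alamar blue.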

[2] = target: T1, HCV NS3 protease (full length NS34a) (Hepatitis C virus genotype 1b, UniProt P26663); experiment: HCV NS3 protease assay (FRET, full length NS34a); type: biochemical; conditions: for inhibition at 0.03 µM: read-out: Activity % inhibition @ 0.03 μM, 0.03 μM compound; for inhibition at 0.01 µM: read-out: Activity % inhibition @ 0.01 μM
T1 construct: The protease activity of the full length NS34a was measured using a FRET-based assay; made in house
How it was run: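 FRET readout over 30 minutes at room temperature, with IC50 fitted to initial rates from replicate curves. Enzyme was full-length NS34a; substrate a peptide from the NS4AB cleavage site labelled with QXL520 and 5-FAMsp; buffer 50 mM Tris pH8 containing 20 mM DTT, 1% CHAPS, 10% glycerol and 5% DMSO.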

[3] = protease activity of full length NS34a, FRET peptide substrate, read-out: Activity IC50
[4] = Hepatitis C virus, Huh-7, 72 h, Huh-7 replicon cells, 72 h, read-out: Activity EC50 (μM) (EC50 luciferase readout)
[5] = IC50 values of 10-150 μM against the protease activity of the full length NS34a, or at least 40% inhibition of protease activity at a concentration of 100 μM

T1 sequence (P26663 1658-1711): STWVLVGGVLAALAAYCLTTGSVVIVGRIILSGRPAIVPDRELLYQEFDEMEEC
T1 sequence (P26663 1027-1657): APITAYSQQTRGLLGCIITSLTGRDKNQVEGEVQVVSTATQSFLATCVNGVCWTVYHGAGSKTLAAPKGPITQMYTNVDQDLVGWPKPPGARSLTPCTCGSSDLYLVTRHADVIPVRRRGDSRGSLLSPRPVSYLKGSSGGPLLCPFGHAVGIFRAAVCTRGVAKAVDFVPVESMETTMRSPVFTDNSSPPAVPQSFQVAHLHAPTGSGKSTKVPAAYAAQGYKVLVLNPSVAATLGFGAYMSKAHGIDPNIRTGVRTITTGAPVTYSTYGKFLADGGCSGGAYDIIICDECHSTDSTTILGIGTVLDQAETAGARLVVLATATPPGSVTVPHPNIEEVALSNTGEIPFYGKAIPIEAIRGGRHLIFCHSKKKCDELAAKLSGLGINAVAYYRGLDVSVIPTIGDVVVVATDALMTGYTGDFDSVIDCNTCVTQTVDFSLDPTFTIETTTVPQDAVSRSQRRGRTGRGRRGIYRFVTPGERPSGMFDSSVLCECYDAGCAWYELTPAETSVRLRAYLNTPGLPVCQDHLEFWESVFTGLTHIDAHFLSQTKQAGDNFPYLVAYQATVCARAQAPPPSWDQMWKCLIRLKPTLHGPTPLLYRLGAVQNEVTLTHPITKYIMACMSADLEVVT

For `CC(CO)NC(c1ccc(F)c(Oc2ccccc2)c1F)C1CCNCC1` (single isomer, unassigned) [Example 76, 2-{[(2,4-Difluoro-3-phenoxy-phenyl)-piperidin-4-yl-methyl]-amino}-propan-1-ol.dihydrochloride], the EC50 ([1]; Huh-7 replicon cells, 72 h, read-out: Activity EC50 (μM) (EC50 luciferase readout)) was 6 µM and the IC50 [2, 3] was 2900 nM.
`CC[C@@H](N[C@@H](C)CC(=O)NC(C)(C)CN)c1ccc(Cl)c(Oc2ccccc2)c1F` [Example 252] gave an EC50 [1, 4] of 0.88 µM and an IC50 [2, 3] of 1900 nM.
`CC[C@@H](N[C@H](C)CO)c1ccc(F)c(Oc2ccccc2)c1F` [Example 58] showed an EC50 [1, 4] of 27 µM and an IC50 [2, 3] of 1000 nM.
`C[C@@H](CC(N)=O)N[C@H](CC1CCNCC1)c1ccc(F)c(Oc2ccccc2)c1F` [Example 84] gave an EC50 [1, 4] of 18 µM and an IC50 [2, 3] of 450 nM.
`CC[C@@H](N[C@@H](C)CC(=O)NC1CNC1)c1ccc(Cl)c(Oc2ccccc2)c1F` [Example 234] gave an EC50 [1, 4] of 7.3 µM and an inhibition at 0.03 µM [2] of 57%.
In the case of `CC[C@@H](N[C@@H](C)CC(=O)NCCCN)c1ccc(Cl)c(Oc2ccccc2)c1F` [Example 240], the EC50 [1, 4] is reported as 8.9 µM and the inhibition at 0.01 µM ([2]; 0.01 μM compound) is reported as 42%.
`Cc1cc(Oc2c(F)ccc(CN[C@H]3CC[C@H](N)CC3)c2F)ccc1N` [Example 287] gave an EC50 [1, 4] of 6.5 µM and an IC50 [2, 3] of 440 nM.
Work on `N[C@@H](c1ccc(F)c(Oc2ccccc2)c1F)[C@H]1CCC(=O)NC1` [Example 74A] yielded an EC50 [1, 4] greater than 30 µM and an IC50 [2, 5] of 10000 to 150000 nM.
Compound `CC[C@@H](N[C@@H](C)c1cc[nH]c1)c1ccc(Cl)c(Oc2ccccc2)c1F` [Example 164] has an EC50 [1, 4] of 2.3 µM and an IC50 [2, 3] of 270 nM.
`CC[C@@H](Nc1ncc(CN)cn1)c1ccc(Cl)c(Oc2ccccc2)c1F` [Example 8, (5-Aminomethyl-pyrimidin-2-yl)-[(R)-1-(4-chloro-2-fluoro-3-phenoxy-phenyl)-propyl]-amine hydrochloride] was tested, and the EC50 [1, 4] was 10 µM and the IC50 [2, 3] was 330 nM.
Work on `CC[C@H](NCCC(=O)NCCO)c1ccc(F)c(Oc2ccccc2)c1F` [Example 92, 3-[(S)-1-(2,4-Difluoro-3-phenoxy-phenyl)-propylamino]-N-(2-hydroxy-ethyl)-propionamide.hydrochloride] yielded an EC50 [1, 4] greater than 30 µM and an IC50 [2, 3] of 910 nM.
In the case of `CCC(NCC1CCNCC1)c1ccc(F)c(Oc2ccccc2)c1F` (stereo not drawn) [Example 29], the EC50 [1, 4] is reported as 0.47 µM and the IC50 [2, 3] is reported as 4400 nM.
For `CC[C@@H](N[C@@H](C)CC(=O)NCCN)c1ccc(Cl)c(Oc2ccccc2)c1F` [Example 224], the EC50 [1, 4] was 0.0088 µM and the inhibition at 0.01 µM [2] was 65.5%.
Compound `CC[C@@H](N[C@@H](C)CC(=O)N[C@@H](C)CN)c1ccc(Cl)c(Oc2ccccc2)c1F` [Example 251] has an EC50 [1, 4] of 1.8 µM and an IC50 [2, 3] of 61 nM.
For `CNC(CC(C)C)c1ccc(F)c(Oc2ccccc2)c1F` (stereo not drawn) [Example 16, [1-(2,4-Difluoro-3-phenoxy-phenyl)-3-methyl-butyl]-methyl-amine. hydrochloride], the EC50 [1, 4] was 0.58 µM and the IC50 [2, 3] was 4000 nM.
Work on `CCC[C@H](N)c1ccc(Cl)c(Oc2ccccc2)c1F` [Example 119] yielded an EC50 [1, 4] of 3.4 µM and an IC50 [2, 3] of 320 nM.
`CC[C@@H](N[C@@H](C)CC(N)=O)c1ccc(Cl)c(Oc2ccc3c(c2)C(C)(C)CN3)c1F` [Example 322] was tested, and the EC50 [1, 4] was 1.2 µM and the IC50 [2, 3] was 270 nM.
For `CC[C@@H](N)c1ccc(Cl)c(Oc2cccc(CO)c2)c1F` [Example 115], the EC50 [1, 4] was greater than 10 µM and the IC50 [2, 3] was 1800 nM.
Work on `CC[C@@H](NCCC(N)=O)c1ccc(Cl)c(Oc2ccccc2)c1F` [Example 97, 3-[(R)-1-(4-Chloro-2-fluoro-3-phenoxy-phenyl)-propylamino]-propionamide.hydrochloride] yielded an EC50 [1, 4] greater than 10 µM and an IC50 [2, 3] of 840 nM.
Work on `CC[C@H](Nc1cccc2c1CNCC2)c1ccc(F)c(Oc2ccccc2)c1F` [Example 137] yielded an EC50 [1, 4] of 7.8 µM and an IC50 [2, 3] of 450 nM.
With `CC[C@@H](N)c1ccc(Cl)c(Oc2ccc(C#N)c(C)c2)c1F` [Example 221] the EC50 [1, 4] was greater than 30 µM and the IC50 [2, 3] was 430 nM.
`CC[C@H](N[C@@H](C)CC(N)=O)c1ccc(Cl)c(Oc2ccccc2)c1Cl` [Example 324] showed an EC50 [1, 4] greater than 10 µM and an IC50 [2, 3] of 1800 nM.
Compound `CC(C)CC(N)c1ccc(F)c(Oc2ccccc2)c1F` (stereo not drawn) [Example 2] has an EC50 [1, 4] of 2.4 µM and an IC50 [2, 3] of 2200 nM.
`CC[C@@H](N[C@@H](C)CC(=O)N1CCCNCC1)c1ccc(Cl)c(Oc2ccccc2)c1F` [Example 236] gave an EC50 [1, 4] of 1.7 µM, an IC50 [2, 5] of 10000 to 150000 nM and an inhibition at 3 µM ([2]; read-out: Activity % inhibition @ 3 μM, 3 μM compound) of 50%.
Compound `CC(N)c1ccc(F)c(Oc2ccccc2)c1F` (stereo not drawn) [Example 4] has an EC50 [1, 4] of 13 µM and an IC50 [2, 3] of 7000 nM.
Work on `N[C@H]1CC[C@H](NCc2ccc(Cl)c(Oc3ccccc3)c2F)CC1` [Example 271, trans-N-(4-Chloro-2-fluoro-3-phenoxy-benzyl)-cyclohexane-1,4-diamine. dihydrochloride] yielded an EC50 [1, 4] of 0.34 µM and an IC50 [2, 3] of 260 nM.
With `CCC(NCC(C)O)c1ccc(F)c(Oc2ccccc2)c1F` (mixture of isomers) [Example 53, 1-[1-(2,4-Difluoro-3-phenoxy-phenyl)-propylamino]-propan-2-ol.hydrochloride] the EC50 [1, 4] was 26 µM and the IC50 [2, 3] was 5000 nM.
`CC[C@H](N[C@H](C)CO)c1ccc(F)c(Oc2ccccc2)c1F` [Example 65] showed an EC50 [1, 4] of 12 µM and an IC50 [2, 3] of 2100 nM.
`CS(=O)(=O)Nc1cccc(Oc2c(F)ccc(CN[C@H]3CC[C@H](N)CC3)c2F)c1` [Example 284] showed an EC50 [1, 4] greater than 10 µM and an IC50 [2, 3] of 1400 nM.
In the case of `CC[C@H](NC(C)CO)c1ccc(Cl)c(Oc2ccccc2)c1F` (stereo partly drawn) [Example 81], the EC50 [1, 4] is reported as 11 µM and the IC50 [2, 3] is reported as 390 nM.
`Cc1cc(Oc2c(F)ccc(CN[C@H]3CC[C@@H](N)CC3)c2F)ccc1N` [Example 288] gave an EC50 [1, 4] of 1.4 µM and an IC50 [2, 3] of 1400 nM.
In the case of `N[C@H]1CC[C@@H](NCc2cccc(Oc3ccccc3)c2)CC1` [Example 281], the EC50 [1, 4] is reported as 0.79 µM and the IC50 [2, 3] is reported as 10000 nM.
For `CC[C@@H](N[C@H](C)c1cc[nH]c1)c1ccc(Cl)c(Oc2ccccc2)c1F` [Example 163, [(R)-1-(4-Chloro-2-fluoro-3-phenoxy-phenyl)-propyl]-1-[(R)-1-(1H-pyrrol-3-yl)-ethyl]-amine.dihydrochloride], the EC50 [1, 4] was 0.94 µM and the IC50 [2, 3] was 2500 nM.
`CC[C@@H](N[C@@H](C)CO)c1ccc(F)c(Oc2ccccc2)c1F` [Example 57] gave an EC50 [1, 4] of 29 µM and an IC50 [2, 5] of 10000 to 150000 nM.
`CC[C@H](N)c1ccc(Cl)c(Oc2ccccc2)c1F` [Example 77] showed an EC50 [1, 4] of 12 µM and an IC50 [2, 3] of 590 nM.
`CC[C@@H](N[C@@H](C)CC(N)=O)c1ccc(Cl)c(Oc2cccc(CO)c2)c1F` [Example 116] was tested, and the EC50 [1, 4] was 0.19 µM and the IC50 [2, 3] was 130 nM.
Compound `CC[C@H](N[C@@H](C)CO)c1ccc(F)c(Oc2ccccc2)c1F` [Example 64] has an EC50 [1, 4] of 18 µM and an IC50 [2, 3] of 430 nM.
`CC[C@@H](N[C@@H](C)CC(=O)N[C@H](C)CO)c1ccc(Cl)c(Oc2ccccc2)c1F` [Example 207] was tested, and the EC50 ([1]; Hepatitis C virus, Huh-7, 72 h, read-out: Activity EC50 (μM) (EC50 luciferase readout), Huh-7 replicon cells, 72 h) was greater than 10 µM and the IC50 [2, 3] was 210 nM.
`CC[C@@H](N[C@H](C)CC(=O)NCCN)c1ccc(Cl)c(Oc2ccc(N)c(C)c2)c1F` [Example 239] showed an EC50 [1, 4] of 0.97 µM and an inhibition at 0.03 µM [2] of 41%.
For `CCC[C@@H](N)c1ccc(Cl)c(Oc2ccccc2)c1F` [Example 118], the EC50 [1, 4] was 4.4 µM and the IC50 [2, 3] was 1700 nM.
Compound `CC[C@@H](N[C@@H](C)CC(N)=O)c1ccc(Cl)c(Oc2ccc3c(c2)OCC3)c1F` [Example 233] has an EC50 [1, 4] of 0.079 µM and an IC50 [2, 3] of 110 nM.
With `CCC(NC(C)CC(N)=O)c1ccc(F)c(Oc2ccccc2)c1F` (stereo not drawn) [Example 66] the EC50 [1, 4] was greater than 30 µM and the IC50 [2, 3] was 750 nM.
Work on `C[C@@H](CC(=O)NCCN)NCc1ccc(Cl)c(Oc2ccccc2)c1F` [Example 329] yielded an EC50 [1, 4] of 4 µM and an inhibition at 0.03 µM [2] of 57%.
